Results published in patent US20250145594A1, “MODULATORS OF THE INTEGRATED STRESS PATHWAY” (Calico Life Sciences LLC, priority 2020, published 2025).

System: ATF4 luciferase reporter in HEK293T cells
Assay: ATF4-Luc assay (in vitro model of VWMD)
Assay type: cell-based, human
Conditions: Homo sapiens, HEK-293T, 7 h, HEK293T cells carrying the ATF4 luciferase reporter, 1 μg/mL tunicamycin, One Glo luminescence
Summary of the method: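 Tunicamycin (1 μg/mL) stress with co-added compound for 7 hours in HEK293T cells stably carrying an ATF4 5′-UTR–luciferase reporter. EC50 values come from the luminescent signal (One Glo).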

## O=C(NC12CC(n3cc(-c4ccc(OC(F)(F)F)c(F)c4)cn3)(C1)C2)[C@H]1C[C@@H](O)c2cc(Cl)ccc2O1 [Compound 312, (2R,4R)-6-chloro-N-(3-{4-[3-fluoro-4-(trifluoromethoxy)phenyl]-1H-pyrazol-1-yl}bicyclo[1.1.1]pentan-1-yl)-4-hydroxy-3,4-dihydro-2H-1-benzopyran-2-carboxamide]
  EC50: < 10 nM

## O=C(NC12CC(n3cc(-c4ccn(CC(F)(F)F)c4)cn3)(C1)C2)[C@H]1C[C@@H](O)c2cc(Cl)ccc2O1 [Compound 547, (2R,4R)-6-chloro-4-hydroxy-N-(3-{4-[1-(2,2,2-trifluoroethyl)-1H-pyrrol-3-yl]-1H-pyrazol-1-yl}bicyclo[1.1.1]pentan-1-yl)-3,4-dihydro-2H-1-benzopyran-2-carboxamide]
  EC50: < 10 nM

## O=C(COc1ccc(Cl)c(F)c1)NC12CC(n3cc(C(=O)N[C@H]4C[C@@H](OC(F)(F)F)C4)cn3)(C1)C2 [Compound 362, 1-{3-[2-(4-chloro-3-fluorophenoxy)acetamido]bicyclo[1.1.1]pentan-1-yl}-N-[cis-3-(trifluoromethoxy)cyclobutyl]-1H-pyrazole-4-carboxamide]
  EC50: 50 to 250 nM

## O=C(NC12CC(n3cc(C(=O)N4CC[C@H](OC(F)(F)F)C4)cn3)(C1)C2)[C@H]1C[C@@H](O)c2cc(C(F)(F)F)ccc2O1 [Compound 326, (2R,4R)-4-hydroxy-N-(3-{4-[(3S)-3-(trifluoromethoxy)pyrrolidine-1-carbonyl]-1H-pyrazol-1-yl}bicyclo[1.1.1]pentan-1-yl)-6-(trifluoromethyl)-3,4-dihydro-2H-1-benzopyran-2-carboxamide]
  EC50: < 10 nM

## O=C(NC12CC(n3cc([C@H]4CC[C@@H](OC(F)(F)F)C4)nn3)(C1)C2)[C@H]1C[C@@H](O)c2cc(Cl)ccc2O1 (relative stereo) [Compound 540, (2R,4R)-6-chloro-4-hydroxy-N-(3-{4-[(1S*,3R*)-3-(trifluoromethoxy)cyclopentyl]-1H-1,2,3-triazol-1-yl}bicyclo[1.1.1]pentan-1-yl)-3,4-dihydro-2H-1-benzopyran-2-carboxamide]
  EC50: 10 to 50 nM

## O=C(NC12CC(n3cc(-c4ccc(C(F)(F)F)cn4)cn3)(C1)C2)[C@@H]1C[C@@H](O)c2cc(C(F)(F)F)ccc2O1 [Compound 548, (2S,4R)-4-hydroxy-6-(trifluoromethyl)-N-(3-{4-[5-(trifluoromethyl)pyridin-2-yl]-1H-pyrazol-1-yl}bicyclo[1.1.1]pentan-1-yl)-3,4-dihydro-2H-1-benzopyran-2-carboxamide]
  EC50: < 10 nM

## O=C(NC12CC(n3cc4c(n3)CN(CCOC(F)(F)F)C4)(C1)C2)[C@H]1C[C@@H](O)c2cc(Cl)c(F)cc2O1 [Compound 512, (2R,4R)-6-chloro-7-fluoro-4-hydroxy-N-(3-{5-[2-(trifluoromethoxy)ethyl]-5,6-dihydropyrrolo[3,4-c]pyrazol-2(4H)-yl}bicyclo[1.1.1]pentan-1-yl)-3,4-dihydro-2H-1-benzopyran-2-carboxamide]
  EC50: 10 to 50 nM

## O=C(CO[C@H]1C[C@@H](OC(F)(F)F)C1)NC12CC(NC(=O)[C@H]3C[C@H](O)c4cc(Cl)c(Cl)cc4O3)(C1)C2 [Compound 495, (2R,4S)-6,7-dichloro-4-hydroxy-N-[3-(2-{[(1s,3S)-3-(trifluoromethoxy)cyclobutyl]oxy}acetamido)bicyclo[1.1.1]pentan-1-yl]-3,4-dihydro-2H-1-benzopyran-2-carboxamide]
  EC50: < 10 nM

## O=C(N[C@H]1CC[C@H](n2cc(OCC(F)(F)F)cn2)CC1)[C@H]1C[C@@H](O)c2cc(Cl)ccc2O1 [Compound 524, (2R,4R)-6-chloro-4-hydroxy-N-{(1r,4R)-4-[4-(2,2,2-trifluoroethoxy)-1H-pyrazol-1-yl]cyclohexyl}-3,4-dihydro-2H-1-benzopyran-2-carboxamide]
  EC50: 10 to 50 nM

## O=C(N[C@H]1CC[C@H](n2cc(-c3ccc(C(F)(F)F)cn3)cn2)CC1)[C@H]1C[C@@H](O)c2cc(Cl)c(F)cc2O1 [Compound 578, (2R,4R)-6-chloro-7-fluoro-4-hydroxy-N-[(1r,4R)-4-{4-[5-(trifluoromethyl)pyridin-2-yl]-1H-pyrazol-1-yl}cyclohexyl]-3,4-dihydro-2H-1-benzopyran-2-carboxamide]
  EC50: < 10 nM

## O=C(CO[C@H]1C[C@@H](OC(F)(F)F)C1)NC12CC(NC(=O)[C@H]3C[C@@H](O)c4cc(Cl)c(F)cc4O3)(C1)C2 [Compound 461, (2R,4R)-6-chloro-7-fluoro-4-hydroxy-N-[3-(2-{[(1s,3S)-3-(trifluoromethoxy)cyclobutyl]oxy}acetamido)bicyclo[1.1.1]pentan-1-yl]-3,4-dihydro-2H-1-benzopyran-2-carboxamide]
  EC50: < 10 nM

## O=C(NC12CC(c3ccc(-n4cnc(C(F)(F)F)c4)nc3)(C1)C2)[C@H]1C[C@@H](O)c2cc(Cl)c(F)cc2O1 [Compound 480, (2R,4R)-6-chloro-7-fluoro-4-hydroxy-N-(3-{6-[4-(trifluoromethyl)-1H-imidazol-1-yl]pyridin-3-yl}bicyclo[1.1.1]pentan-1-yl)-3,4-dihydro-2H-1-benzopyran-2-carboxamide]
  EC50: < 10 nM

## O=C(COc1ccc(Cl)c(F)c1)NC12CC(n3cc([C@H]4C[C@@H](OC(F)(F)F)C4)nn3)(C1)C2 [Compound 620, 2-(4-chloro-3-fluorophenoxy)-N-(3-{4-[(1s,3s)-3-(trifluoromethoxy)cyclobutyl]-1H-1,2,3-triazol-1-yl}bicyclo[1.1.1]pentan-1-yl)acetamide]
  EC50: < 10 nM

## C[C@@H](COc1cnn(C23CC(NC(=O)[C@H]4C[C@@H](O)c5cc(Cl)ccc5O4)(C2)C3)c1)OC(F)(F)F [Compound 443, (2R,4R)-6-chloro-4-hydroxy-N-(3-{4-[(2S)-2-(trifluoromethoxy)propoxy]-1H-pyrazol-1-yl}bicyclo[1.1.1]pentan-1-yl)-3,4-dihydro-2H-1-benzopyran-2-carboxamide]
  EC50: 10 to 50 nM

## O=C(NC12CC(n3cc(C4CC(COC(F)(F)F)C4)nn3)(C1)C2)[C@H]1C[C@@H](O)c2cc(Cl)ccc2O1 (stereo partly drawn) [Compound 541, (2R,4R)-6-chloro-4-hydroxy-N-[3-(4-{3-[(trifluoromethoxy)methyl]cyclobutyl}-1H-1,2,3-triazol-1-yl)bicyclo[1.1.1]pentan-1-yl]-3,4-dihydro-2H-1-benzopyran-2-carboxamide]
  EC50: < 10 nM

## O=C(NC12CC(n3cc(OCCOC(F)(F)F)cn3)(C1)C2)[C@H]1C[C@@H](O)c2cc(Cl)ccc2O1 [Compound 412, (2R,4R)-6-chloro-4-hydroxy-N-(3-{4-[2-(trifluoromethoxy)ethoxy]-1H-pyrazol-1-yl}bicyclo[1.1.1]pentan-1-yl)-3,4-dihydro-2H-1-benzopyran-2-carboxamide]
  EC50: < 10 nM

## O=C(CO[C@H]1C[C@@H](OC(F)(F)F)C1)NC12CCC(NC(=O)[C@H]3C[C@@H](O)c4cc(C(F)(F)F)c(F)cc4O3)(CC1)C[C@@H]2O [Compound 647, (2R,4R)-7-fluoro-4-hydroxy-N-[(3S)-3-hydroxy-4-(2-{[(1s,3R)-3-(trifluoromethoxy)cyclobutyl]oxy}acetamido)bicyclo[2.2.2]octan-1-yl]-6-(trifluoromethyl)-3,4-dihydro-2H-1-benzopyran-2-carboxamide]
  EC50: < 10 nM

## O=C(N[C@H]1CC[C@H](n2cc(N3CC[C@@H](OC(F)(F)F)C3)cn2)CC1)[C@H]1C[C@@H](O)c2cc(Cl)c(F)cc2O1 [Compound 582, (2R,4R)-6-chloro-7-fluoro-4-hydroxy-N-[(1R,4R)-4-{4-[(3R)-3-(trifluoromethoxy)pyrrolidin-1-yl]-1H-pyrazol-1-yl}cyclohexyl]-3,4-dihydro-2H-1-benzopyran-2-carboxamide]
  EC50: 10 to 50 nM
